Experimental data taken from patent US20090181080A1, “Oral cannabinnoid liquid formulations and methods of treatment” (Insys Therapeutics Inc., priority 2007, published 2009).

Assay: Threshold concentration versus duration of effect analysis of Example 35 data
Type: in vivo, human
Method: In Example 38, the individual concentration-time profiles for soft gelatin capsules of Example 35 were analyzed to identify the mean duration of effect in that subject population, for a range of threshold concentrations (e.g., minimum effective concentrations). The results are depicted in FIG. 4.

[1] = 5 mg dose, by dose-proportional scaling
[2] = dose of 10 mg dronabinol, soft gelatin capsules of Example 35 data

**Q.** Which results are given for CCCCCc1cc(O)c2c(c1)OC(C)(C)[C@@H]1CCC(C)=C[C@@H]21 [dronabinol, Delta-9-Tetrahydrocannabinol]?
**A.** threshold concentration for a 4 hour duration of effect [1]: approximately 0.28 ng/mL; threshold concentration for a 6 hour duration of effect [1]: ~0.12 ng/mL; threshold concentration required for a 4 hour duration of effect [2]: approximately 0.56 ng/mL; threshold concentration required for a 6 hour duration of action [2]: approximately 0.24 ng/mL
